In US20260209223A1, “FGFR3 INHIBITOR COMPOUNDS” (TYRA BIOSCIENCES, INC., priority 2022, published 2026):

What was measured:
FGFR1 = biological target: T1, FGFR1 (Homo sapiens, UniProt P11362); experiment: Kinase binding assay (Kd), kinase-tagged T7 phage, affinity beads, qPCR; conditions: in vitro binding assay, 11-point 3-fold dilution series
T1 construct: made in house; host or cells: E. coli (BL21-derived) infected with T7 phage
Procedure: (§1) Kinase-tagged T7 phage strains were prepared in an E. coli host derived from the BL21 strain. E. coli were grown to log-phase and infected with T7 phage and incubated with shaking at 32° C. until lysis. The lysates were centrifuged and filtered to remove cell debris. Streptavidin-coated magnetic beads were treated with biotinylated small molecule ligands for 30 minutes at room temperature to generate affinity resins for kinase assays. The liganded beads were blocked with excess biotin and washed with blocking buffer SeaBlock (Pierce), 1% BSA, 0.05% Tween 20, 1 mM DTT to remove unbound ligand and to reduce non-specific binding. Binding reactions were assembled by combining kinases, liganded affinity beads, and test compounds in 1× binding buffer (20% SeaBlock, 0.17×PBS, 0.05% Tween 20, 6 mM DTT).
(§2) Test compounds were prepared as 111× stocks in 100% DMSO. Kds were determined using an 11-point 3-fold compound dilution series with three DMSO control points. All compounds for Kd measurements are distributed by acoustic transfer (non-contact dispensing) in 100% DMSO. The compounds were then diluted directly into the assays such that the final concentration of DMSO was 0.9%. All reactions performed in polypropylene 384-well plate. Each was a final volume of 0.02 ml. The assay plates were incubated at room temperature with shaking for 1 hour and the affinity beads were washed with wash buffer (1×PBS, 0.05% Tween 20). The beads were then re-suspended in elution buffer (1×PBS, 0.05% Tween 20, 0.5 μM non-biotinylated affinity ligand) and incubated at room temperature with shaking for 30 minutes. The kinase concentration in the eluates was measured by qPCR.
(§3) Binding constants were calculated with a standard dose-response curve using the Hill equation: […]
(§4) The Hill Slope was set to −1. Curves were fitted using a non-linear least square fit with the Levenberg-Marquardt algorithm.

FGFR2 = biological target: T2, FGFR2 (Homo sapiens, UniProt P21802); experiment: as above; conditions: in vitro binding assay, 11-point 3-fold dilution series
T2 construct: made in house; host or cells: E. coli (BL21-derived) infected with T7 phage
Procedure: as §1, §2, §3, §4

FGFR3 = biological target: T3, FGFR3 (Homo sapiens, UniProt P22607); experiment: as above; conditions: in vitro binding assay, 11-point 3-fold dilution series
T3 construct: made in house; host or cells: E. coli (BL21-derived) infected with T7 phage
Procedure: as §1, §2, §3, §4

FGFR3 (V555M) = biological target: T4, FGFR3 (V555M) (Homo sapiens, UniProt P22607, V555M); experiment: as above; conditions: in vitro binding assay, 11-point 3-fold dilution series
T4 construct: made in house; host or cells: E. coli (BL21-derived) infected with T7 phage
Procedure: as §1, §2, §3, §4

FGFR4 = biological target: T5, FGFR4 (Homo sapiens, UniProt P22455); experiment: as above; conditions: in vitro binding assay, 11-point 3-fold dilution series
T5 construct: made in house; host or cells: E. coli (BL21-derived) infected with T7 phage
Procedure: as §1, §2, §3, §4

Ba/F3 BCR-FGFR1 = biological target: T6, Ba/F3 BCR-FGFR1 (Homo sapiens, UniProt P11362); experiment: Ba/F3 cell viability assay (CellTiter-Glo 2.0); assay type: cell-based; conditions: Ba/F3 cell data, BCR-FGFR1 fusion, 48 hours
T6 construct: BCR (fusion partner); host or cells: Ba/F3; the other entry of the earlier key: BCR (P11274, Breakpoint cluster region protein)

Ba/F3 BCR-FGFR2 = biological target: T7, Ba/F3 BCR-FGFR2 (Homo sapiens, UniProt P21802); experiment: Ba/F3 cell viability assay (CellTiter-Glo 2.0); assay type: cell-based; conditions: Ba/F3 cell data, BCR-FGFR2 fusion, 48 hours
T7 construct: BCR (fusion partner); host or cells: Ba/F3; the other entry of the earlier key: BCR (P11274, Breakpoint cluster region protein)

Ba/F3 FGFR3-BAIAP2L1 = biological target: T8, Ba/F3 FGFR3-BAIAP2L1 (Homo sapiens, UniProt P22607); experiment: Ba/F3 cell viability assay (CellTiter-Glo 2.0); assay type: cell-based; conditions: Ba/F3 cell data, FGFR3-BAIAP2L1 fusion, 48 hours
T8 construct: BAIAP2L1 (fusion partner, Q9UHR4 if human); host or cells: Ba/F3; the other entry of the earlier key: BAIAP2L1 (Q9UHR4, BAR/IMD domain-containing adapter protein 2-like 1)

Ba/F3 ETV5-FGFR4 = biological target: T9, Ba/F3 ETV5-FGFR4 (Homo sapiens, UniProt P22455); experiment: Ba/F3 cell viability assay (CellTiter-Glo 2.0); assay type: cell-based; conditions: Ba/F3 cell data, ETV5-FGFR4 fusion, 48 hours
T9 construct: host or cells: Ba/F3; the other entry of the earlier key: ETV5 (P41161, ETS translocation variant 5)
Text: Experimental Purpose: Recombinant kinase fusions are transduced into parental Ba/F3, which becomes dependent upon this constitutive kinase activity for IL3-independent survival. Inhibition of kinase activity leads to cell death, which is monitored using CellTiter-Glo® 2.0 (Promega) which measures intracellular ATP concentration that in turn serves as a marker for viability. BCR-FGFR1 Ba/F3, BCR-FGFR2 and FGFR3-BAIAP2L1 Ba/F3 were obtained from Advanced Cellular Dynamics (Seattle, WA). ETV6-FGFR4 was obtained from Kyinno (Waltham, MA).
Cell Viability Assay Procedure: Cell Titer-Glo® 2.0 Luminescent cell viability assay reagent was purchased from Promega (Madison, WI). Ba/F3 cell lines were cultured in RPMI1640 media supplemented with 10% fetal bovine serum. Cultures were maintained at 37° C. in a humidified atmosphere of 5% CO2 and 95% air.
Cells were plated in 96-well clear bottom/white plates (Corning #3903) at 10,000 cells/well in 100 μl of media, incubated overnight. The next day, test compound DMSO stock solutions were made at 10 mM and 2 μM final concentration. Compounds were then added to cells in a 9-dose, 10-fold dilution series starting at 30 μM with an HP 300e Digital Dispenser (each dose was applied in triplicate). DMSO was backfilled to each well up to 301 nL total volume of test compound+DMSO, and a total of 301 nL DMSO was added to a control/no test compound well in triplicate. The cells in cell culture plates were incubated with the compounds at 37° C. and 5% CO2 for 48 hours. Then 50 μl of Cell Titer Glo 2.0 reagent was added to each well of the cell culture plates. The contents were covered from light and mixed on an orbital shaker at room temperature for 10 min. Luminescence was recorded by a Synergy H1 Microplate Reader (Biotek, Winooski, VT). Cells were assessed as a percentage of DMSO only treated control cells. Curves were plotted and IC50 values were calculated using the GraphPad Prism 8 program based on a sigmoidal dose-response equation (4 parameter).

KG-1 = experiment: Cancer cell line cell viability assay (CellTiter-Glo 2.0); assay type: cell-based; conditions: Homo sapiens; KG-1 (FGFR1-fusion) cell viability, 72 hours
Text: (§5) Experimental Purpose: To detect the change of intracellular ATP by Cell Titer-Glo® and to evaluate the inhibitory effect of the compounds on cancer cell lines by determining the in vitro IC50 value of the compounds.
(§6) Cell Titer-Glo® 2.0 Luminescent cell viability assay reagent was purchased from Promega (Madison, WI). RT112/84 and KG-1 cell lines were purchased from American Type Culture Collection (Manassas, VA). UM-UC-14 cell line was purchased from Sigma (St. Louis, MO). RT112/84, UM-UC-14, and KG-1 cells were cultured in RPMI1640 media supplemented with 10% fetal bovine serum. Cultures were maintained at 37° C. in a humidified atmosphere of 5% CO2 and 95% air.
(§7) Cell Viability Assay Procedure: Cells were plated in 96-well clear bottom/white plates (Corning #3903) at 10,000 cells/well in 100 μl of media, incubated overnight. The next day, test compound DMSO stock solutions were made at 10 mM and 2 μM final concentration.
(§8) Compounds were then added to cells in a 9-dose, […] dilution series starting at 30 μM with an HP 300e Digital Dispenser (each dose was applied in triplicate). DMSO was backfilled to each well up to 301 nL total volume of test compound+DMSO, and a total of 301 nL DMSO was added to a control/no test compound well in triplicate. The cells in cell culture plates were incubated with the compounds at 37° C. and 5% CO2 for 72 hours. Then 50 μl of Cell Titer Glo 2.0 reagent was added to each well of the cell culture plates. The contents were covered from light and mixed on an orbital shaker at room temperature for 10 min.
(§9) Luminescence was recorded by a Synergy H1 Microplate Reader (Biotek, Winooski, VT). Cells were assessed as a percentage of DMSO only treated control cells. Curves were plotted and IC50 values were calculated using the GraphPad Prism 8 program based on a sigmoidal dose-response equation (4 parameter).

RT112/84 = experiment: as above; assay type: cell-based; conditions: Homo sapiens; RT112/84 (FGFR3-fusion) cell viability, 72 hours
Text: as §5, §6, §7, §8, §9

KatoIIII = experiment: as above; assay type: cell-based; conditions: 72 hours

T9 sequence (P22455 467-755 limits assumed): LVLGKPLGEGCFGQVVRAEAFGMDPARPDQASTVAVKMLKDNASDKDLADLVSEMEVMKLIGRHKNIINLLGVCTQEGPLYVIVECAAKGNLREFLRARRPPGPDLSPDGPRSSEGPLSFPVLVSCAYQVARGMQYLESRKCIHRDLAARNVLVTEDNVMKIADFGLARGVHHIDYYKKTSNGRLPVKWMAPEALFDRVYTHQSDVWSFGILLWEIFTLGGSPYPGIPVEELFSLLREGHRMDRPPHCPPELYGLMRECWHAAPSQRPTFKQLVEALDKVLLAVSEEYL
T8 sequence (P22607 397-758 limits assumed): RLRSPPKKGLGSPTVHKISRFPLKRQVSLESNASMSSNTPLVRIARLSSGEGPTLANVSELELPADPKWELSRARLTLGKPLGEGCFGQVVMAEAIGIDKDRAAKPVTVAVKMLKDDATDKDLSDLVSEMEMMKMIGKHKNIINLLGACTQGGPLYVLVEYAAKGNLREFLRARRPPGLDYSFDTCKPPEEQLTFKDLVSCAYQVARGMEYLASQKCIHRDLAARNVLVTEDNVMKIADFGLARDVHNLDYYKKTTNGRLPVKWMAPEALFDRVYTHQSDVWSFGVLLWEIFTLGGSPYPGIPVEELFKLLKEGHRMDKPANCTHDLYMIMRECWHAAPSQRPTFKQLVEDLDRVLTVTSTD
T3 sequence (P22607 23-806): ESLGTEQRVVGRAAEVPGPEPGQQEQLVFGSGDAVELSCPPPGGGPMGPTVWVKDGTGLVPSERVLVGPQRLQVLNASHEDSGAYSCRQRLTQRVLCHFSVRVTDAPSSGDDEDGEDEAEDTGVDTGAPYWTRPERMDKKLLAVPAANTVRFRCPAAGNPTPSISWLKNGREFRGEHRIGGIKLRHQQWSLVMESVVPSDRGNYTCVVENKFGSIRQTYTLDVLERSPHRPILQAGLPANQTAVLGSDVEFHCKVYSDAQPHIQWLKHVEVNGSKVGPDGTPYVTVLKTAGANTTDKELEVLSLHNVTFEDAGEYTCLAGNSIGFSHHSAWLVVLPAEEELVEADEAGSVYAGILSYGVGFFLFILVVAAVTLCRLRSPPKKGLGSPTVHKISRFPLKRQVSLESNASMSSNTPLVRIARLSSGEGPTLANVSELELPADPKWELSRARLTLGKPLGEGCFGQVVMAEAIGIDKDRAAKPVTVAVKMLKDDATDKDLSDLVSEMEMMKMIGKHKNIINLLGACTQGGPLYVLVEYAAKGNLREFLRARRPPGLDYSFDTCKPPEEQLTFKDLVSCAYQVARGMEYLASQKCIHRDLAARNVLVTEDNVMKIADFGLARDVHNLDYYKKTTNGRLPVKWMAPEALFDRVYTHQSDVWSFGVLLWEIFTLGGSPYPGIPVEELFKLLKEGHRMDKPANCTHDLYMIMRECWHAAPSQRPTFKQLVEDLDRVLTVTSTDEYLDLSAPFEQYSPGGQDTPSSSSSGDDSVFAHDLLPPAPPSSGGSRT
T5 sequence (P22455 22-802): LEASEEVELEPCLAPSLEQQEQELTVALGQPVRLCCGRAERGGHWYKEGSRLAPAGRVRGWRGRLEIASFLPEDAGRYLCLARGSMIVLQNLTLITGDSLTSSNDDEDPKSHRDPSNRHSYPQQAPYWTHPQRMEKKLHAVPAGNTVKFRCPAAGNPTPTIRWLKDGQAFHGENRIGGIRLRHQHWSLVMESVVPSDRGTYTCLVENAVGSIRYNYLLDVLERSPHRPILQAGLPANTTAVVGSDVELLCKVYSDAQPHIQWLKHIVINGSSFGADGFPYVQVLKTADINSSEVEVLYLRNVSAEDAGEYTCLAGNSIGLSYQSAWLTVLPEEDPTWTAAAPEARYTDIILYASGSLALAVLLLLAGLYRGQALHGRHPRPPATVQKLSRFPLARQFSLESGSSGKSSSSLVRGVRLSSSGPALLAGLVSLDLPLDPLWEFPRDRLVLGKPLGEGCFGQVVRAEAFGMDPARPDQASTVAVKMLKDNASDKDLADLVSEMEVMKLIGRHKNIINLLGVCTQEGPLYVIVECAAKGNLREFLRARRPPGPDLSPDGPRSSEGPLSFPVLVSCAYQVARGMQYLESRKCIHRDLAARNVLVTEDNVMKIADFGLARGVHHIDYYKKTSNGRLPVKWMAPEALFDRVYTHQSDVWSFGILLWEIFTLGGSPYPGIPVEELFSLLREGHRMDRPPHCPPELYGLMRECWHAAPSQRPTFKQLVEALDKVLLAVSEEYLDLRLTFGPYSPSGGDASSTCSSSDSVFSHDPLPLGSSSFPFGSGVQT
T6 sequence (P11362 478-767 limits assumed): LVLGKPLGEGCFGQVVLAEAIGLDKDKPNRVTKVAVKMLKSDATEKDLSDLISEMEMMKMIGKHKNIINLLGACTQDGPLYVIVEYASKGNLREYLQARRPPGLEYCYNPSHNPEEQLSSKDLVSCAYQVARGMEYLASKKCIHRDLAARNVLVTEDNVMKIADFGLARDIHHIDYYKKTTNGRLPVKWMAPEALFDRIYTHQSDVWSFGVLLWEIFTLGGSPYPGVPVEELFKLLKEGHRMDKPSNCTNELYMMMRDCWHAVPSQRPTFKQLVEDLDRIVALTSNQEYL
T1 sequence (P11362 22-822): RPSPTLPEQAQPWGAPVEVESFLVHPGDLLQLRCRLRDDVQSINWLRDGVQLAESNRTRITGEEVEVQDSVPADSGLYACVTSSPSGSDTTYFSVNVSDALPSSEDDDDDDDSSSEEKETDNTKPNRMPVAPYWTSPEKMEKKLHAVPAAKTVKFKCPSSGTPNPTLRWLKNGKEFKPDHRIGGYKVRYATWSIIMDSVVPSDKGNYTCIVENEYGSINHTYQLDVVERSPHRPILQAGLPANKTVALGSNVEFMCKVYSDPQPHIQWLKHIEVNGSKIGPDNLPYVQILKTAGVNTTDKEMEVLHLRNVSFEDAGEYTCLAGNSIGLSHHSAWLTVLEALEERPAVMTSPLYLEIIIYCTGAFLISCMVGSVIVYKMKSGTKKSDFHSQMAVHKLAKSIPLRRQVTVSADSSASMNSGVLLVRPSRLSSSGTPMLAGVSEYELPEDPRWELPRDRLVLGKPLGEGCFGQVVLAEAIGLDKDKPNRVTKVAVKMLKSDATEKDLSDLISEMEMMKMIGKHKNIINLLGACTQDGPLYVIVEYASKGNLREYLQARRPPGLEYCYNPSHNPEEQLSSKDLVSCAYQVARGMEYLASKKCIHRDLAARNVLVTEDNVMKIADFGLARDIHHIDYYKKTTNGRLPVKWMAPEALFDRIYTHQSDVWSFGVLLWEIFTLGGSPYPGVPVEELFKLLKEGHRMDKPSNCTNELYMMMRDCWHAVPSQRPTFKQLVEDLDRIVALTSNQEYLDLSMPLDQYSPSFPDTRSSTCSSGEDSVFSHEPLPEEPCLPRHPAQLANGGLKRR
T4 sequence (P22607 23-806 V555M): as the sequence (P22607 23-806) above, with V533M counted along it
T7 sequence (P21802 481-770 limits assumed): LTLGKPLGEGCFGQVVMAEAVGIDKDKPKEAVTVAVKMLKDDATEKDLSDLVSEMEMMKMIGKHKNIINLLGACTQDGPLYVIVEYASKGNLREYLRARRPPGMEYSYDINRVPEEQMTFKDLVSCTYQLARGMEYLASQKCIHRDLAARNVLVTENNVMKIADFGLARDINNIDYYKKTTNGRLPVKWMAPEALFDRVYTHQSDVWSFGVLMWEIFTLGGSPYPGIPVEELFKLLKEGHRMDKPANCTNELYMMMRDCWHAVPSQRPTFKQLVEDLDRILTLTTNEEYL
T2 sequence (P21802 22-821): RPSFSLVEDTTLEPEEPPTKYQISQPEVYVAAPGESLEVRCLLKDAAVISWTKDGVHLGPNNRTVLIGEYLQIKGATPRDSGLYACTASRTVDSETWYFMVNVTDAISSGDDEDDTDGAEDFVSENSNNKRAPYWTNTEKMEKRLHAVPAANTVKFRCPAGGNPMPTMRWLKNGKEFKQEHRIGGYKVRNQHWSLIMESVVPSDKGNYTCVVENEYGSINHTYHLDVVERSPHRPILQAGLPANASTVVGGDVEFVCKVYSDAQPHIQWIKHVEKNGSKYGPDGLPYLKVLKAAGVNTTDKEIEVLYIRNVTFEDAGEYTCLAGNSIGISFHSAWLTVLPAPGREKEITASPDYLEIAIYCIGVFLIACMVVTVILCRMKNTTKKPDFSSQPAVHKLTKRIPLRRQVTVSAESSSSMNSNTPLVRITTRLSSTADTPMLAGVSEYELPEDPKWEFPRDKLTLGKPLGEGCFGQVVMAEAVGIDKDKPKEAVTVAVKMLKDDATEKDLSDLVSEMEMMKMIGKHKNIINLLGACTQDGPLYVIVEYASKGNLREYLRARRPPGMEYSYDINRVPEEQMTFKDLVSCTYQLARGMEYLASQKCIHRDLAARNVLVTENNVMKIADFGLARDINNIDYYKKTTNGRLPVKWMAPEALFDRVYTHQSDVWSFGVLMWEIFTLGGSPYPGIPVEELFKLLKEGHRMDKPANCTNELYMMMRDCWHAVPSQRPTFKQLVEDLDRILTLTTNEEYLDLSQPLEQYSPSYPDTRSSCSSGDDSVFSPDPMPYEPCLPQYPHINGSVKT

Compound	Kd (FGFR1) [nM]	Kd (FGFR2) [nM]	Kd (FGFR3) [nM]	Kd (FGFR3 (V555M)) [nM]	Kd (FGFR4) [nM]	Kd (Ba/F3 BCR-FGFR1) [nM]	Kd (Ba/F3 BCR-FGFR2) [nM]	Kd (Ba/F3 FGFR3-BAIAP2L1) [nM]	Kd (Ba/F3 ETV5-FGFR4) [nM]	IC50 (KG-1) [nM]	IC50 (RT112/84) [nM]	IC50 (KatoIIII) [nM]
C=CC(=O)N1CCC2(CC1)CC(n1ncc(-c3cc(OC(CO)c4ccn(C)n4)c4c(C#N)cnn4c3)c1C)C2 (stereo not drawn) [Example 14, 6-(1-(7-acryloyl-7-azaspiro[3.5]nonan-2-yl)-5-methyl-1H-pyrazol-4-yl)-4-(2-hydroxy-1-(1-methyl-1H-pyrazol-3-yl)ethoxy)pyrazolo[1,5-a]pyridine-3-carbonitrile]	100 to 250	0.1 to 100	0.1 to 100	100 to 250	100 to 250	250 to 1000	250 to 1000	0.1 to 100	250 to 1000	250 to 1000	250 to 1000	250 to 1000
C=CC(=O)N1CC(F)(C(=O)N2CCC(n3nnc(-c4cc(O[C@H](CO)c5ccccn5)c5c(C#N)cnn5c4)c3C)CC2)C1 (single isomer, unassigned) [Example 20]	0.1 to 100	0.1 to 100	0.1 to 100	0.1 to 100	0.1 to 100	≥ 1000	≥ 1000	0.1 to 100	≥ 1000	250 to 1000	100 to 250	≥ 1000
C=CC(=O)N1CCC(n2ncc(-c3cc(O[C@H](CO)c4ccc(F)cn4)c4c(C#N)cnn4c3)c2C)CC1 [Example 1, 4-[(1S)-1-(5-fluoro-2-pyridyl)-2-hydroxy-ethoxy]-6-[5-methyl-1-(1-prop-2-enoyl-4-piperidyl)pyrazol-4-yl]pyrazolo[1,5-a]pyridine-3-carbonitrile]	100 to 250	0.1 to 100	0.1 to 100	0.1 to 100	100 to 250	250 to 1000	100 to 250	0.1 to 100	250 to 1000	≥ 1000	100 to 250	100 to 250
C=CC(=O)N1CC(C(=O)N2CCC(n3nnc(-c4cc(O[C@H](CO)c5ccccn5)c5c(C#N)cnn5c4)c3C)CC2)C1 (single isomer, unassigned) [Example 18]	0.1 to 100	0.1 to 100	0.1 to 100	0.1 to 100	0.1 to 100	≥ 1000	≥ 1000	250 to 1000	≥ 1000	≥ 1000	≥ 1000	≥ 1000
C=CC(=O)N1CC(OC)(C(=O)N2CCC(n3nnc(-c4cc(O[C@H](CO)c5ccccn5)c5c(C#N)cnn5c4)c3C)CC2)C1 [Example 22, (S)-6-(1-(1-(1-acryloyl-3-methoxyazetidine-3-carbonyl)piperidin-4-yl)-5-methyl-1H-1,2,3-triazol-4-yl)-4-(2-hydroxy-1-(pyridin-2-yl)ethoxy)pyrazolo[1,5-a]pyridine-3-carbonitrile]	0.1 to 100	0.1 to 100	0.1 to 100	0.1 to 100	0.1 to 100	≥ 1000	≥ 1000	0.1 to 100	≥ 1000	≥ 1000	≥ 1000	≥ 1000
C=CC(=O)N1CCC2(CC1)CC(n1nnc(-c3cc(O[C@H](CO)c4ccc(F)cn4)c4c(C#N)cnn4c3)c1C)C2 [Example 13, (S)-6-(1-(7-acryloyl-7-azaspiro[3.5]nonan-2-yl)-5-methyl-1H-1,2,3-triazol-4-yl)-4-(1-(5-fluoropyridin-2-yl)-2-hydroxyethoxy)pyrazolo[1,5-a]pyridine-3-carbonitrile]	0.1 to 100	0.1 to 100	0.1 to 100	0.1 to 100	0.1 to 100	250 to 1000	100 to 250	0.1 to 100	250 to 1000	0.1 to 100	100 to 250	100 to 250
